{"source": "paper PMC11412489", "about": "“Coumarin derivatives as new anti-biofilm agents against Staphylococcus aureus” (PLOS ONE, 2024)", "type_in_all_cases": "cell-based, Staphylococcus aureus", "key": {"[1]": {"test_system": "S. aureus", "assay": "Antibacterial activity (bacterial growth inhibition)", "details": "at 100 μg/mL"}, "[2]": {"test_system": "biofilm of S. aureus ATCC 6538", "assay": "96-well plate crystal violet assay for biofilm inhibition", "details": "for inhibition at 3.125 µg/mL / inhibition at 6.25 µg/mL / inhibition at 12.5 µg/mL / inhibition at 25 µg/mL / inhibition at 50 µg/mL / inhibition at 100 µg/mL: Staphylococcus aureus, ATCC6538", "protocol": "The quantitative determination of biofilm inhibition was carried out by the crystal violet assay on a sterile 96-well plate with slight modifications. The glycerol stock of S. aureus was revived overnight at 37°C at 80 rpm. The overnight culture was then diluted 100 folds in fresh BHI broth, supplemented with 0.25% glucose. The cell density was adjusted to 1×10^7 and 195μL of the cell suspension was added in 96-well plate. […] Following that, the plate was washed with sterile distilled water in order to decant the non-adherent cells, and media. The plate was then dried at 60°C for 1 hour, and 200 μL of 0.1% (w/v) crystal violet was added to stain biofilm for 20 minutes. The plate was washed again, air dried, and dispensed 30% (v/v) acetic acid in each well to dissolve the biofilm. The inhibition of biofilm formation was analyzed by measuring the absorbance at 595 nm using the microplate reader (Multiskan Sky, Thermo Scientific, USA). The percent inhibition of biofilm formation was calculated via the following formula: 100−ƛTreated−ƛBlank/ƛControl−ƛBlank×100 Whereƛ=absorbance"}, "[3]": {"test_system": "S. aureus biofilm", "assay": "Atomic force microscopy analysis of biofilm disruption", "details": "compared to control S. aureus cells, 24 hours", "protocol": "The size and structure of disrupted biofilm was analyzed. Briefly, a pure single colony of S. aureus was inoculated in BHI broth and grown for 18–24 hours at 37°C. Following incubation, the cells were diluted in BHI broth, and density was adjusted to 1×10^7 before loading on a sterile silicon chip placed in 24-well plate, then silicon chips were treated with active compounds. The plate was then sealed, and placed in an incubator for 24 hours at 37°C. After incubation, the treated silicon chips were washed with autoclaved distilled water thrice, air dried, and the samples were analyzed by atomic force microscope (Agilent Technologies, USA)."}, "[4]": {"test_system": "biofilm cells of the S. aureus strain (ATCC 6538)", "assay": "Biofilm analysis by fluorescence microscopy (SYTO-9/PI)", "details": "SYTO-9/PI staining, S. aureus ATCC 6538, 24 hours", "protocol": "Briefly, 1×10^7 cells were loaded in 96-well plate, and treated with active compounds. Plate was sealed, and incubated for 24 hours at 37°C. Following incubation, plate was washed with sterile distilled water, and cells were stained with […] SYTO-9 and 5 μM PI, for 30 minutes in dark at room temperature. After incubation, the wells were washed again, and air dried. Images were taken, and then visualized by Nikon Eclipse TE2000, USA [23]. Propidium Iodide (PI) staining indicates membrane integrity, as it can only pass through compromised membranes of non-viable cells, giving red fluorescence. On the contrary, Syto-9 can pass through all cells despite of their membrane integrity, and binds to DNA/RNA by emitting green fluorescence."}, "[5]": {"details": "S. aureus ATCC 6538, replicate 1, read-out: % Inhibition 1"}, "[6]": {"details": "S. aureus ATCC 6538, replicate 2, read-out: % Inhibition 2"}, "[7]": {"details": "S. aureus ATCC 6538, replicate 3, read-out: % Inhibition 3"}, "[8]": {"details": "S. aureus ATCC 6538, read-out: Mean % Inhibition"}}, "note": "Where two headings read alike, the source gives them in different places.", "data": [{"smiles": "O=c1oc2ccccc2cc1-c1csc(N/N=C/c2cc(Cl)cc(Br)c2)n1", "note": "[Compound 17, (E)-3-(2-(2-(3-Bromo-5-chlorobenzylidene)hydrazinyl)thiazol-4-yl)-2H-chromen-2-one]", "values": [{"measurement": "inhibition at 100 µg/mL", "setting": "[1]; Staphylococcus aureus, read-out: Antibacterial Activity (% Inhibition ± SEM)", "result": "20 ± 4.64", "unit": "%"}, {"measurement": "Antibacterial Activity (% Inhibition ± SEM)", "setting": "[1]", "result": "low antibacterial effect"}, {"measurement": "inhibition at 3.125 µg/mL", "setting": "[2]; [5]", "result": 1.64, "unit": "%"}, {"measurement": "inhibition at 3.125 µg/mL", "setting": "[2]; [6]", "result": 1.36, "unit": "%"}, {"measurement": "inhibition at 3.125 µg/mL", "setting": "[2]; [7]", "result": 1.84, "unit": "%"}, {"measurement": "inhibition at 3.125 µg/mL", "setting": "[2]; [8]", "result": 1.61, "unit": "%"}, {"measurement": "inhibition at 6.25 µg/mL", "setting": "[2]; [5]", "result": 3.64, "unit": "%"}, {"measurement": "inhibition at 6.25 µg/mL", "setting": "[2]; [6]", "result": 3.52, "unit": "%"}, {"measurement": "inhibition at 6.25 µg/mL", "setting": "[2]; [7]", "result": 3.97, "unit": "%"}, {"measurement": "inhibition at 6.25 µg/mL", "setting": "[2]; [8]", "result": 3.71, "unit": "%"}, {"measurement": "inhibition at 12.5 µg/mL", "setting": "[2]; [5]", "result": 0.03, "unit": "%"}, {"measurement": "inhibition at 12.5 µg/mL", "setting": "[2]; [6]", "result": 0.03, "unit": "%"}, {"measurement": "inhibition at 12.5 µg/mL", "setting": "[2]; [7]", "result": 0.01, "unit": "%"}, {"measurement": "inhibition at 12.5 µg/mL", "setting": "[2]; [8]", "result": 0.0233, "unit": "%"}, {"measurement": "inhibition at 25 µg/mL", "setting": "[2]; [5]", "result": 15.9, "unit": "%"}, {"measurement": "inhibition at 25 µg/mL", "setting": "[2]; [6]", "result": 15.1, "unit": "%"}, {"measurement": "inhibition at 25 µg/mL", "setting": "[2]; [7]", "result": 16.9, "unit": "%"}, {"measurement": "inhibition at 25 µg/mL", "setting": "[2]; [8]", "result": 15.9, "unit": "%"}, {"measurement": "inhibition at 50 µg/mL", "setting": "[2]; [5]", "result": 55.1, "unit": "%"}, {"measurement": "inhibition at 50 µg/mL", "setting": "[2]; [6]", "result": 53, "unit": "%"}, {"measurement": "inhibition at 50 µg/mL", "setting": "[2]; [7]", "result": 57, "unit": "%"}, {"measurement": "inhibition at 50 µg/mL", "setting": "[2]; [8]", "result": 55, "unit": "%"}, {"measurement": "inhibition at 100 µg/mL", "setting": "[2]; 100 µg/mL, S. aureus ATCC 6538, replicate 1, read-out: % Inhibition 1", "result": 77.9, "unit": "%"}, {"measurement": "inhibition at 100 µg/mL", "setting": "[2]; 100 µg/mL, S. aureus ATCC 6538, replicate 2, read-out: % Inhibition 2", "result": 77.6, "unit": "%"}, {"measurement": "inhibition at 100 µg/mL", "setting": "[2]; 100 µg/mL, S. aureus ATCC 6538, replicate 3, read-out: % Inhibition 3", "result": 82.3, "unit": "%"}, {"measurement": "inhibition at 100 µg/mL", "setting": "[2]; 100 µg/mL, S. aureus ATCC 6538, read-out: Mean % Inhibition", "result": 79.3, "unit": "%"}, {"measurement": "inhibition at 100 µg/mL", "setting": "[2]; at 100 μg/mL, biofilm of S. aureus, 24 hours, read-out: Antibiofilm Activity (% Inhibition ± SEM)", "result": "69 ± 1.75", "unit": "%"}, {"measurement": "Antibiofilm Activity (% Inhibition ± SEM)", "setting": "[2]; at 100 μg/mL, biofilm of S. aureus, 24 hours", "result": "high potential to inhibit the biofilms"}, {"measurement": "Biofilm disruption seen by AFM", "setting": "[3]", "result": "Disrupted biofilm surfaces"}, {"measurement": "Biofilm disruption seen by fluorescence microscopy", "setting": "[4]", "result": "Disruption on the surface of biofilm"}]}]}
